Experimental data reported in patent publication US12071469B2, “Peptide compounds for suppressing inflammation” (Duke University, priority 2011, dated 2024).

Columns and labels:
[1] = VSRRR quantitation in mouse plasma by LC/SIM/MS after intravenous dosing; type: in vivo; conditions: IV single dose 0.8 mg/kg
Experimental: The amount of the ApoE mimetic peptide VSRRR (SEQ ID NO:4) in blood plasma and CNS was determined as follows:
VSRRR Quantitation in Mouse Plasma Using LC/Selected Ion Monitoring (SIM)/MS
48 μL aliquots of mouse plasma were measured into the wells of a 2 mL 96-well plate. 6 μL of a stable isotope labeled (SIL) form of the VSRRR peptide (“VSRRR[10]”; SEQ ID NO:4) (5 picomoles/μL in 50 mM ammonium bicarbonate, pH 8, buffer) was added. 6 μL of a synthetic form of the VSRRR peptide (“VSRRR”; SEQ ID NO:4) in 50 mM Ammonium bicarbonate was added for standards and quality controls (QCs) and an equivalent volume of 50 mM ammonium bicarbonate was added to all wells containing mouse PK samples. 1140 μL of 50 mM ammonium formate, pH 10, was added for a final volume of 1200 μL. Salts and proteins were removed using OASIS® HLB Solid Phase Extraction (SPE) protocol as follows: • 1. 500 μL methanol (MeOH) through each well×1. • 2. 500 μL 25% acetonitrile (ACN)/1% trifluoroacetic acid (TFA)×1 (as pre-elution). • 3. 500 μL MeOH×1 • 4. 500 μL 50 mM ammonium formate×2 • 5. 1 mL of each sample mixture was pipetted directly onto an OASIS® HLB plate (hydrophilic-lipophilic-balanced reversed-phase sorbent; Waters Corp.) into a corresponding well and slowly vacuumed through • 6. 500 μL 50 mM ammonium formate×1 • 7. 500 μL 10% ACN/50 mM ammonium formate×2 • 8. 500 μL 25% ACN/50 mM ammonium formate×1 • 9. Removed plate collecting washes/flowthrough, and put in collection plate • 10. Eluted with 100 μL 25% ACN/1% TFA×3, eluting with vacuum slowly. The final eluate should be approximately 300 μL.
The SPE eluate was dried using a vacuum centrifuge. The sample was reconstituted in 50 μL of buffer containing 1% acetonitrile (ACN), 0.1% trifluoroacetic acid (TFA), and 0.02% heptafluorobutyric acid (HFBA). Two microliters of reconstituted sample was analyzed by nanoscale capillary LC coupled to a high resolution, accurate mass tandem mass spectrometer. Specifically, the electrospray ionization source with NanoLockSpray™ (Waters Corp.) and nanoAcquity UPLC® system (Waters Corp.) were used with a nanoscale LC column (1.7 μm BEH130 C18 150 μm ID×100 mm long; Waters Corp.), 10-min gradient of 3% to 19% ACN with 0.1% formic acid (mobile phase A=0.1% formic acid/0.001% HFBA) with a total LC run time of 16.5 minutes, flow rate=1.8 μL/min and 35° C. column temperature. A SYNAPT™ G1 HDMS™ high resolution mass spectrometer (Waters Corp.) was used. Full Scan MS data was obtained over the mass region of 50-4000 Da using an Enhanced Duty Cycle scan function at 360 Da.
VSRRR and VSRRR[10] amounts were quantitated by measuring the area under the curve (AUC) of the Selected Ion Chromatograms of the doubly charged ions at high resolution (m/z 357.7 and 362.7). The final VSRRR quantitation amount was determined using the ratio of the AUCs (VSRRR/VSRRR[10]). The ratios from 5 animals were averaged per time point and calibration standards were used to generate a standard curve. Duplicate aliquots of QC samples were analyzed by LC/MS in triplicate to determine analytical reproducibility.
The lower level of quantitation (LLOQ) is indicated.

[2] = tested on: mice with middle cerebral artery occlusion (focal ischemia-reperfusion); test: Rotorod vestibulomotor function after modified middle cerebral artery occlusion (MCAO); type: in vivo, mouse
Excerpt: A modified middle cerebral artery occlusion (MCAO) model (Huang et al., (1994) Science, 265:1883-1885; Laskowitz et al., (1997) J. Cereb. Blood Flow Metab., 17:753-758) was used to determine the effect of the mimetic peptides on neurological function after stroke and to evaluate the peptide's efficacy as a therapeutic agent for stroke. The mice were endotracheally intubated after anesthesia induction with 4.6% isoflurane, and the lungs were mechanically ventilated with 1.6% isoflurane in 30% O2/70% N2. Via a midline cervical skin incision, the right common carotid artery was identified. The external carotid artery was ligated and transected. The internal carotid artery was dissected distally until the origin of the pterygopalatine artery was visualized. A 6-0 nylon monofilament with blunted tip lightly coated with silicone was inserted into the proximal external carotid artery stump and advanced 11 mm into the internal carotid artery to occlude the middle cerebral artery. After 90 min, the filament was removed to restore blood perfusion, and the skin incision closed with suture. Isoflurane was discontinued and the mice were extubated upon the recovery of spontaneous respiration. Post-injury mice were placed in an oxygen-enriched environment (FIO2=50%) for 1 hr and then returned to their cages. Rectal temperature was continuously monitored and servoregulated with surface heating/cooling at 37° C. throughout the procedure.
Two groups of 10-12 week old male C57Bl/6J mice, a control group (n=12) and a VR-55-treated group (n=9), received MCAO. […]
An automated Rotorod (Ugo Basile, Comerio, Italy) was used to assess vestibulomotor function, as previously described above. […] The average time to fall from the rotating cylinder in the latter 3 trials was recorded as baseline functional Rotorod latency. […] The average latency to fall from the rod was recorded. […]

Ac-VSRRR-NH2 [VR-55, Ac-VSRRR-NH2]
Ratio Light/Heavy across 5 animals ([1]; 1 min): 0.079
amount of peptide in plasma ([1]; 1 min): 32.2 fmol/µL
Ratio Light/Heavy across 5 animals ([1]; 3 min): 0.134
amount of peptide in plasma ([1]; 3 min): 51.8 fmol/µL
Ratio Light/Heavy across 5 animals ([1]; 5 min): 0.077
amount of peptide in plasma ([1]; 5 min): 31.7 fmol/µL
Ratio Light/Heavy across 5 animals ([1]; 10 min): 0.058
amount of peptide in plasma ([1]; 10 min): 24.9 fmol/µL
Ratio Light/Heavy across 5 animals ([1]; 15 min): 0.044
amount of peptide in plasma ([1]; 15 min): 19.6 fmol/µL
Ratio Light/Heavy across 5 animals ([1]; 30 min): 0.016
amount of peptide in plasma ([1]; 30 min): 9.9 fmol/µL
Ratio Light/Heavy across 5 animals ([1]; 60 min): 0.012
amount of peptide in plasma ([1]; 60 min): 8.5 fmol/µL
functional Rotorod latency compared to control mice ([2]; Day 3 post-injury, 0.05 mg/kg iv at 30 min and 6 hrs after reperfusion): improvement in functional Rotorod latency
functional Rotorod latency ([2]; Day 3 post-injury, 0.05 mg/kg iv at 30 min and 6 hrs after reperfusion, control mice 161+/−32 sec): 216 ± 26 s
baseline functional Rotorod latency ([2]; day before MCAO, control mice 217+/−20 sec): 214 ± 22 s
